In US20150133493A1, “COUMARIN-BASED COMPOUNDS FOR THE TREATMENT OF ALZHEIMER'S DISEASE AND CANCER” (Sloan-Kettering Institute for Cancer Research, priority 2008, published 2015):

target: T1, γ-secretase (Homo sapiens, UniProt P49768); test: In vitro γ-secretase activity assay, Aβ42 production (ECL); format: biochemical; settings: in vitro inhibition of γ-secretase activity that generates Aβ42; 2.5 hr at 37° C., ECL detection
T1 construct: endogenous in cells
Experimental: FIG. 2. In vitro characterization of coumarin-dimer allosteric GSIs against various γ-secretase cleavage products. […] The IC50 values were calculated from the dose response curves using a non-linear regression analysis in Prism software. […] The three β-amyloid-detection in vitro assays were modified from our previously reported assay (21) using a biotinylated substrate that eliminated the requirement of anti-β-amyloid biotinylated antibody. Ruthenylated antibodies that detected the -40, -42, or -38 cleavage site were incorporated to detect proteolysis indicative of γ-secretase activity. In vitro Notch assay utilized a recombinant transmembrane portion of the Notch peptide and anti-Notch1 SM320 antibody in conjunction with ruthenylated anti-rabbit secondary antibodies. Electrochemiluminescence was quantified on an Analyzer (BioVeris).
Briefly, recombinant peptide substrate was incubated with γ-secretase (40 μg/ml) in the presence or absence of test compound. […] The reaction was incubated for 2.5 hr at 37° C. and stopped by adding RIPA buffer (150 mM NaCl, 1.0% NP-40, 0.5% sodium deoxycholate, 0.1% SDS, 50 mM Tris HCl, pH 8.0). […] The amount of product was determined using synthetic peptide or recombinant standards.
(§1) Cell membranes and solubilized γ-secretase were prepared as described previously (36). The in vitro and cell γ-secretase assays detecting either Aβ38, Aβ40, or Aβ42 cleavage were performed similar as previously described (21, 36). Cleaved product was detected using ruthenylated antibodies that recognize specific APP cleavage sites (Aβ31-38*, G2-10*, or G2-11* antibody for Aβ38, Aβ40, or Aβ42 respectively). The Km and Vmax in the presence and absence of γ-secretase inhibitors were analyzed by non-linear curve fit using the software SigmaPlot 8.0 with the Michaelis-Menten equation (v=Vm [S]/(Km+[S]; v: initial rate; Vm: maximum velocity; Km: the Michaelis-Menten constant, S: substrate).

Compound	IC50 [µM]
Nc1ccc2c(c1)Oc1c(c(=O)oc3ccccc13)C2c1c(O)c2ccccc2oc1=O (stereo not shown) [Compound 372]	9.9
O=c1oc2ccccc2c(O)c1C1c2c(F)c(F)c(F)c(F)c2Oc2c1c(=O)oc1ccccc21 (stereo not shown) [Compound 423]	1.3
O=C(Cc1cc(F)cc(F)c1)c1c(O)c2ccccc2oc1=O [Compound 560]	26.9
O=c1oc2ccccc2c(O)c1C(c1ccc(C(F)(F)F)cc1)c1c(O)c2ccccc2oc1=O [Compound 728]	1.6
CC(=O)Nc1ccc(C(c2c(O)c3ccccc3oc2=O)c2c(O)c3ccccc3oc2=O)cc1 [Compound 732]	15.9
O=c1oc2ccccc2c(O)c1C(c1c(O)c2ccccc2oc1=O)C1CCCCC1 [Compound 733]	1.2
O=c1oc2ccccc2c(O)c1C(c1ccccc1F)c1c(O)c2ccccc2oc1=O [Compound 734]	7.2
Oc1ccnc(O)c1C(c1cc(F)c(F)c(F)c1)c1c(O)ccnc1O [Compound 738]	> 100
O=c1oc2ccccc2c(O)c1Cc1cc(F)c(F)c(F)c1 [compound 476]	> 100
O=C(CC(c1cc(F)c(F)c(F)c1)c1c(O)c2ccccc2oc1=O)NCc1cc(F)cc(F)c1 (stereo not shown) [compound 512]	1.24
O=C(Cc1cc(F)cc(F)c1)NCCNC(=O)CC(c1cc(F)c(F)c(F)c1)c1c(O)c2ccccc2oc1=O (stereo not shown) [compound 520]	4.53
Cc1coc(=O)c(C(c2cc(F)c(F)c(F)c2)c2c(O)c(C)coc2=O)c1O [compound 668]	1.7
O=c1oc2ccccc2c(O)c1C(c1ccc(Cl)cc1)c1c(O)c2ccccc2oc1=O [compound 729]	1.2
O=c1oc2ccccc2c(O)c1C(c1ccc(Br)cc1)c1c(O)c2ccccc2oc1=O [compound 730]	1.2
O=c1oc2ccccc2c(O)c1C(c1ccc(I)cc1)c1c(O)c2ccccc2oc1=O [compound 731]	1.5

target: T1, γ-secretase; test: In vitro γ-secretase activity assay, Aβ40 production (ECL); format: biochemical; settings: in vitro inhibition of γ-secretase activity that generates Aβ40; 2.5 hr at 37° C., ECL detection
Experimental: FIG. 2. In vitro characterization of coumarin-dimer allosteric GSIs against various γ-secretase cleavage products. The potency of 7 unique coumarin-based γ-secretase inhibitors were evaluated for efficacy against γ-secretase-mediated production of Aβ40, Aβ42, Aβ38, and Notch. Additionally, the pan-GSI Compound E was also examined in these assays. The IC50 values were calculated from the dose response curves using a non-linear regression analysis in Prism software. IC50 values are presented with standard deviation (n=3 for each data point). The three β-amyloid-detection in vitro assays were modified from our previously reported assay (21) using a biotinylated substrate that eliminated the requirement of anti-β-amyloid biotinylated antibody. Ruthenylated antibodies that detected the -40, -42, or -38 cleavage site were incorporated to detect proteolysis indicative of γ-secretase activity. In vitro Notch assay utilized a recombinant transmembrane portion of the Notch peptide and anti-Notch1 SM320 antibody in conjunction with ruthenylated anti-rabbit secondary antibodies. Electrochemiluminescence was quantified on an Analyzer (BioVeris). The selectivity ratio for Aβ42 inhibition over Aβ40 and Notch are indicated in the two far right columns.
The assay protocol employed was a modified version of that described in Li et al., 2000, Proc. Nat'l Acad. Sci. USA 97:6183-643, incorporated herein by reference. Briefly, recombinant peptide substrate was incubated with γ-secretase (40 μg/ml) in the presence or absence of test compound. The reaction mixture contained 0.25% CHAPSO, 0.1 μg/μl BSA, protease inhibitor, 50 mM PIPES, pH 7.0, 5 mM MgCl2, 5 mM CaCl2 and 150 mM KCl. The reaction was incubated for 2.5 hr at 37° C. and stopped by adding RIPA buffer (150 mM NaCl, 1.0% NP-40, 0.5% sodium deoxycholate, 0.1% SDS, 50 mM Tris HCl, pH 8.0). The products were detected with various antibody combinations using electrochemiluminescence (ECL) technology as previously described in Li et al., 2000, Proc. Nat'l Acad. Sci. USA 97:6183-643; Lai et al., 2003, J. Biol. Chem. 278: 22475-22481; and Yin et al., 2007, J. Biol. Chem. 282:23639-23644. The amount of product was determined using synthetic peptide or recombinant standards.
as §1

Compound	IC50 [µM]
Nc1ccc2c(c1)Oc1c(c(=O)oc3ccccc13)C2c1c(O)c2ccccc2oc1=O (stereo not shown) [Compound 372]	19.4
O=c1oc2ccccc2c(O)c1C1c2c(F)c(F)c(F)c(F)c2Oc2c1c(=O)oc1ccccc21 (stereo not shown) [Compound 423]	3.4
O=C(Cc1cc(F)cc(F)c1)c1c(O)c2ccccc2oc1=O [Compound 560]	89.9
O=c1oc2ccccc2c(O)c1C(c1ccc(C(F)(F)F)cc1)c1c(O)c2ccccc2oc1=O [Compound 728]	7
CC(=O)Nc1ccc(C(c2c(O)c3ccccc3oc2=O)c2c(O)c3ccccc3oc2=O)cc1 [Compound 732]	63.9
O=c1oc2ccccc2c(O)c1C(c1c(O)c2ccccc2oc1=O)C1CCCCC1 [Compound 733]	4.2
O=c1oc2ccccc2c(O)c1C(c1ccccc1F)c1c(O)c2ccccc2oc1=O [Compound 734]	1.95
Oc1ccnc(O)c1C(c1cc(F)c(F)c(F)c1)c1c(O)ccnc1O [Compound 738]	> 100
O=c1oc2ccccc2c(O)c1Cc1cc(F)c(F)c(F)c1 [compound 476]	> 100
O=C(CC(c1cc(F)c(F)c(F)c1)c1c(O)c2ccccc2oc1=O)NCc1cc(F)cc(F)c1 (stereo not shown) [compound 512]	1.86
O=C(Cc1cc(F)cc(F)c1)NCCNC(=O)CC(c1cc(F)c(F)c(F)c1)c1c(O)c2ccccc2oc1=O (stereo not shown) [compound 520]	9.23
Cc1coc(=O)c(C(c2cc(F)c(F)c(F)c2)c2c(O)c(C)coc2=O)c1O [compound 668]	4.2
O=c1oc2ccccc2c(O)c1C(c1ccc(Cl)cc1)c1c(O)c2ccccc2oc1=O [compound 729]	1.7
O=c1oc2ccccc2c(O)c1C(c1ccc(Br)cc1)c1c(O)c2ccccc2oc1=O [compound 730]	1.7
O=c1oc2ccccc2c(O)c1C(c1ccc(I)cc1)c1c(O)c2ccccc2oc1=O [compound 731]	6.1

same assay, conditions: ratio of IC50 for Aβ40 to IC50 for Aβ42

Compound	Aβ40/Aβ42 ratio
Nc1ccc2c(c1)Oc1c(c(=O)oc3ccccc13)C2c1c(O)c2ccccc2oc1=O (stereo not shown) [Compound 372]	2.0
O=c1oc2ccccc2c(O)c1C1c2c(F)c(F)c(F)c(F)c2Oc2c1c(=O)oc1ccccc21 (stereo not shown) [Compound 423]	2.6
O=C(Cc1cc(F)cc(F)c1)c1c(O)c2ccccc2oc1=O [Compound 560]	3.3
O=c1oc2ccccc2c(O)c1C(c1ccc(C(F)(F)F)cc1)c1c(O)c2ccccc2oc1=O [Compound 728]	4.4
CC(=O)Nc1ccc(C(c2c(O)c3ccccc3oc2=O)c2c(O)c3ccccc3oc2=O)cc1 [Compound 732]	4.0
O=c1oc2ccccc2c(O)c1C(c1c(O)c2ccccc2oc1=O)C1CCCCC1 [Compound 733]	3.5
O=c1oc2ccccc2c(O)c1C(c1ccccc1F)c1c(O)c2ccccc2oc1=O [Compound 734]	0.3
O=C(CC(c1cc(F)c(F)c(F)c1)c1c(O)c2ccccc2oc1=O)NCc1cc(F)cc(F)c1 (stereo not shown) [compound 512]	1.5
O=C(Cc1cc(F)cc(F)c1)NCCNC(=O)CC(c1cc(F)c(F)c(F)c1)c1c(O)c2ccccc2oc1=O (stereo not shown) [compound 520]	2.0
Cc1coc(=O)c(C(c2cc(F)c(F)c(F)c2)c2c(O)c(C)coc2=O)c1O [compound 668]	2.5
O=c1oc2ccccc2c(O)c1C(c1ccc(Cl)cc1)c1c(O)c2ccccc2oc1=O [compound 729]	1.4
O=c1oc2ccccc2c(O)c1C(c1ccc(Br)cc1)c1c(O)c2ccccc2oc1=O [compound 730]	1.4
O=c1oc2ccccc2c(O)c1C(c1ccc(I)cc1)c1c(O)c2ccccc2oc1=O [compound 731]	4.1
